pIC50: −log10 of the molar value.
Biological target: T1, Flag/GST-tagged recombinant human B-Raf (Homo sapiens, UniProt P15056)
T1 construct: Flag; GST; made in house; host or cells: Sf9 insect cells (B-Raf); E. coli (Mek-1-GST)
Test: B-Raf Kinase to MEK1 ELISA
Assay type: biochemical
Details: phosphorylation of GST-MEK1 (50 nM final), phospho-MEK1 antibody/Europium readout; 60 minutes at RT
From the text: • TITLE: B-Raf Kinase to MEK1 ELISA • PURPOSE: To discover B-Raf Kinase inhibitors that can inhibit growth of tumor cells which contain oncogenic forms of Receptor Tyrosine Kinases or K-Ras, or B-Raf kinase.
Reagents: Flag/GST-tagged recombinant human B-Raf produced in Sf9 insect cells, human non-active Mek-1-GST (recombinant protein produced in E. coli); and a phospho-MEK1 specific poly-clonal Ab from Cell Signaling Technology (cat. #9121).
B-Raf-1 is used to phosphorylate GST-MEK1. MEK1 phosphorylation is measured by a phospho-specific antibody (from Cell Signaling Technology, cat. #9121) that detects phosphorylation of two serine residues at positions 217 and 221 on MEK1.
1. Assay Dilution Buffer (ADB): 20 mM MOPS, pH 7.2, 25 mM β-glycerol phosphate, 5 mM EGTA, 1 mM sodium orthovanadate, 1 mM dithiothreitol.
2. Magnesium/ATP Cocktail: 200 μM cold ATP and 40 mM magnesium chloride in ADB.
4. Active Kinase: Active B-Raf: used at ˜20 ng per assay point.
5. Non-active GST-MEK1: Use at 100 nM (50 nM final).
7. Anti-GST Ab (Pharmacia)
8. Anti-rabbit Ab/Europium conjugate (Wallac)
1. Add 25 μl of ADB containing B-Raf and Mek per assay (i.e. per well of a 96 well plate)
2. Add 25 μl of 0.2 mM ATP and 40 mM magnesium chloride in ADB.
3. Incubate for 60 minutes at RT in a shaking incubator.
4. Transfer this mixture to an anti-GST Ab coated 96 well plate (Nunc Immunosorb plates coated o/n with a-GST.
5. Incubate for 60 minutes at 30° C. in a shaking incubator
6. Wash 3× with TBST, add Anti-Phospho MEK1 (1:1000)
7. Incubate for 60 minutes at 30° C. in a shaking incubator
8. Wash 3× with TBST, add Anti-rabbit Ab/Europium conjugate (Wallac) (1:500)
9. Incubate for 60 minutes at 30° C. in a shaking incubator
10. Add 100 ul of Wallac Delfia Enhancement Solution and shake for 10 minutes.
11. Read plates in Wallac Victor model Plate Reader.
12. Collect data analyze in Excel for single point and IC50 determinations.
• Single point assay—% inhibition at […] (% Inhibition=1−cpd.treated sample/untreated control) • IC50 determinations—done on cpds from single pt assays with >80% inhibition. Typically Raf-1 assay is run at cpd concentrations from 10 μM to 30 nM in half log dilutions. (% inhibition is determined for each cpd concentration) • Data handling—Data is analyzed in Excel, and will transferred to Radis.

T1 sequence (P15056 whole entry): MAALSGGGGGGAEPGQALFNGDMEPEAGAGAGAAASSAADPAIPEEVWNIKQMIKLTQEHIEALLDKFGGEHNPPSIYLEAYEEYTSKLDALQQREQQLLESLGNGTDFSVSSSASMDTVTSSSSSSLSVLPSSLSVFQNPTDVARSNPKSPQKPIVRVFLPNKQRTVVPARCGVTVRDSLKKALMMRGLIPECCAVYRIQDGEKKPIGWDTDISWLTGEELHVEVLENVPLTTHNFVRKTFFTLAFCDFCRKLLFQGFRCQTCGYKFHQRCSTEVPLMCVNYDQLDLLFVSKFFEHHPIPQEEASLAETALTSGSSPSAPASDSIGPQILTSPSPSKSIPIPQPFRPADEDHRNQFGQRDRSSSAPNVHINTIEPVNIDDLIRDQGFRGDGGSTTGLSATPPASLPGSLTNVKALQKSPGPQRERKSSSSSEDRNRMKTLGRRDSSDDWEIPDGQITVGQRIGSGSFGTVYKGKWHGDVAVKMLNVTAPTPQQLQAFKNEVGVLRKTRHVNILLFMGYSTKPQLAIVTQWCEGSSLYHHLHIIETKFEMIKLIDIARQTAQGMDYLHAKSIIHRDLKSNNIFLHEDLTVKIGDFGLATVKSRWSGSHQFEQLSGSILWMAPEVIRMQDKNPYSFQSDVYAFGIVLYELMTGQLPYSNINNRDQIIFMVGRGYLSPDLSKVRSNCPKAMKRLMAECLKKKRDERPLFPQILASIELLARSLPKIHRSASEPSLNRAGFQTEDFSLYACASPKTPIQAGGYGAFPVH

| pIC50 | Structure (SMILES) |
| --- | --- |
| 5.42 | CC(=O)N1CC=C(c2cccc(NC(=O)c3cccc(C(F)(F)F)c3)c2)n2nccc21 [Example 10, N-[3-(4-Acetyl-4,5-dihydropyrazolo[1,5-a]pyrimidin-7-yl)phenyl]-3-(trifluoromethyl)benzamide] |
| < 5.00 | NCC(=O)N1CC=C(c2cccc(NC(=O)c3cccc(C(F)(F)F)c3)c2)n2nccc21 [Example 15, N-[3-(4-Glycyl-4,5-dihydropyrazolo[1,5-a]pyrimidin-7-yl)phenyl]-3-(trifluoromethyl)benzamide] |
| 6.24 | CCOC(=O)c1cnn2c1N(C(C)=O)CC=C2c1cccc(NC(=O)c2cccc(C(F)(F)F)c2)c1 [Example 11, Ethyl 4-acetyl-7-(3-{[3-(trifluoromethyl)benzoyl]amino}phenyl)-4,5-dihydropyrazolo[1,5-a]pyrimidine-3-carboxylate] |
| < 5.00 | CCNC(=O)N1CC=C(c2cccc(NC(=O)c3cccc(C(F)(F)F)c3)c2)n2nccc21 [Example 9, N-Ethyl-7-(3-{[3-(trifluoromethyl)benzoyl]amino}phenyl)pyrazolo[1,5-a]pyrimidine-4(5H)-carboxamide] |
| 6.79 | COC(=O)N1CC=C(c2cccc(NC(=O)c3cccc(C(F)(F)F)c3)c2)n2nccc21 [Example 3, Methyl 7-(3-{[3-(trifluoromethyl)benzoyl]amino}phenyl)pyrazolo[1,5-a]pyrimidine-4(5H)-carboxylate] |
| 6.17 | CS(=O)(=O)N1CC=C(c2cccc(NC(=O)c3cccc(C(F)(F)F)c3)c2)n2nccc21 [Example 2, N-{3-[4-(Methylsulfonyl)-4,5-dihydropyrazolo[1,5-a]pyrimidin-7-yl]phenyl}-3-(trifluoromethyl)benzamide] |
| 6.43 | CCOC(=O)N1CC=C(c2cccc(NC(=O)c3cccc(C(F)(F)F)c3)c2)n2nccc21 [Example 4, Ethyl 7-(3-{[3-(trifluoromethyl)benzoyl]amino}phenyl)pyrazolo[1,5-a]pyrimidine-4(5H)-carboxylate] |
| 6.15 | CC(=O)NCCC(=O)N1CC=C(c2cccc(NC(=O)c3cccc(C(F)(F)F)c3)c2)n2nccc21 [Example 19, N-{3-[4-(N-Acetyl-β-alanyl)-4,5-dihydropyrazolo[1,5-a]pyrimidin-7-yl]phenyl}-3-(trifluoromethyl)benzamide] |
| 6.90 | CCOC(=O)c1cnn2c1N(C(=O)OC)CC=C2c1cccc(NC(=O)c2cccc(C(F)(F)F)c2)c1 [Example 13, 3-Ethyl 4-methyl 7-(3-{[3-(trifluoromethyl)benzoyl]amino}phenyl)pyrazolo[1,5-a]pyrimidine-3,4(5H)-dicarboxylate] |
| 6.79 | O=C(Nc1ccc(Cl)c(C2=CCNc3ccnn32)c1)c1cccc(C(F)(F)F)c1 [Example 20, N-[4-Chloro-3-(4,5-dihydropyrazolo[1,5-a]pyrimidin-7-yl)phenyl]-3-(trifluoromethyl)benzamide] |
| < 5.00 | CC(C)(C)OC(=O)NCC(=O)N1CC=C(c2cccc(NC(=O)c3cccc(C(F)(F)F)c3)c2)n2nccc21 [Example 14, tert-Butyl {2-oxo-2-[7-(3-{[3-(trifluoromethyl)benzoyl]amino}phenyl)pyrazolo[1,5-a]pyrimidin-4(5H)-yl]ethyl}carbamate] |
| 5.75 | CC(=O)NCC(=O)N1CC=C(c2cccc(NC(=O)c3cccc(C(F)(F)F)c3)c2)n2nccc21 [Example 16, N-{3-[4-(N-Acetylglycyl)-4,5-dihydropyrazolo[1,5-a]pyrimidin-7-yl]phenyl}-3-(trifluoromethyl)benzamide] |
| < 5.00 | NCCC(=O)N1CC=C(c2cccc(NC(=O)c3cccc(C(F)(F)F)c3)c2)n2nccc21 [Example 18, N-[3-(4-β-Alanyl-4,5-dihydropyrazolo[1,5-a]pyrimidin-7-yl)phenyl]-3-(trifluoromethyl)benzamide] |
| 6.06 | CC#CCN1CC=C(c2cccc(NC(=O)c3cccc(C(F)(F)F)c3)c2)n2nccc21 [Example 7, N-[3-(4-But-2-yn-1-yl-4,5-dihydropyrazolo[1,5-a]pyrimidin-7-yl)phenyl]-3-(trifluoromethyl)benzamide] |
| 6.09 | CC(C)(C)OC(=O)N1CC=C(c2cccc(NC(=O)c3cccc(C(F)(F)F)c3)c2)n2nccc21 [Example 6, tert-Butyl 7-(3-{[3-(trifluoromethyl)benzoyl]amino}phenyl)pyrazolo[1,5-a]pyrimidine-4(5H)-carboxylate] |
| 6.56 | CCOC(=O)c1cnn2c1NCC=C2c1cccc(NC(=O)c2cccc(C(F)(F)F)c2)c1 [Example 8, Ethyl 7-(3-{[3-(trifluoromethyl)benzoyl]amino}phenyl)-4,5-dihydropyrazolo[1,5-a]pyrimidine-3-carboxylate] |
| < 5.00 | O=C(Nc1cccc(C2=CCNc3ccnn32)c1)c1cccc(C(F)(F)F)c1 [Example 1, N-[3-(4,5-dihydropyrazolo[1,5-a]pyrimidin-7-yl)phenyl]-3-(trifluoromethyl)benzamide] |
| 5.79 | CC(C)NC(=O)N1CC=C(c2cccc(NC(=O)c3cccc(C(F)(F)F)c3)c2)n2nccc21 [Example 5, N-isopropyl-7-(3-{[3-(trifluoromethyl)benzoyl]amino}phenyl)pyrazolo[1,5-a]pyrimidine-4(5H)-carboxamide] |
| 6.41 | CC(C)(C)OC(=O)NCCC(=O)N1CC=C(c2cccc(NC(=O)c3cccc(C(F)(F)F)c3)c2)n2nccc21 [Example 17, tert-Butyl {3-oxo-3-[7-(3-{[3-(trifluoromethyl)benzoyl]amino}phenyl)pyrazolo[1,5-a]pyrimidin-4(5H)-yl]propyl}carbamate] |

| Structure (SMILES) | pIC50 |
| --- | --- |
| CC(C)(C)OC(=O)N1CC=C(c2cccc(N(C(=O)OC(C)(C)C)C(=O)c3cccc(C(F)(F)F)c3)c2)n2nccc21 [Example 12, tert-Butyl 7-(3-{(tert-butoxycarbonyl)[3-(trifluoromethyl)benzoyl]amino}phenyl)pyrazolo[1,5-a]pyrimidine-4(5H)-carboxylate 4(5H)-carboxylate] | < 5.00 |
